From patent US4371537A, “Sulfur-substituted phenoxypyridines having antiviral activity” (The Dow Chemical Company, priority 1981, dated 1983)
In brackets after ≈: the same amount, converted by molar mass.

What was measured:
[1] = system: 20 different rhinoviruses; test: Summary of WI-38 tissue culture testing against 20 rhinoviruses; type: cell-based; conditions: 25 μg/ml; of 20 rhinoviruses
Experimental: (§1) The test compound was dissolved in an appropriate solvent (generally dimethyl sulfoxide) and incubated at 56° C. for at least 15 minutes and this solution was then used to prepare various test solutions having the desired concentration of test compound in preheated WI maintenance medium (49% Eagles, 49% medium 199, 2% fetal calf serum and antibiotics).
(§2) Triplicate cell culture tubes (WI-38 human embryonic lung cell culture tubes) were fed with 1 ml of medium containing the compound at specified concentrations and inoculated with 3-300 TCID50 (3-300 times the tissue culture infective dose 50, i.e., the dose required to infect 50% of the cell cultures tested). Simultaneous viral titrations were performed. The tissue cultures were supplemented with fresh medium when necessary (around 3-4 days) until viral titrations were completed.
(§3) The cell culture tubes were examined dialy for cytopathic effect. […] Comparisons were made at that time with the percentage of cell sheet destruction in tubes containing virus compound mixtures. Observed differences of 75% or more were graded "+", 74-50% as "±", and less than 50% as "-" inhibition.

Hanks Untyped = test: Inhibition of cytopathic effect in WI-38 cell culture tubes, Hanks Untyped; type: cell-based, rhinovirus; conditions: Enterovirus; 12.5 μg/ml; WI-38 cells; read-out: Inhibition grade, Hanks Untyped
Experimental: as §1, §2, §3

Rhinovirus Type 39 = test: Inhibition of cytopathic effect in WI-38 cell culture tubes, rhinovirus type 39; type: cell-based; conditions: Enterovirus; 12.5 μg/ml; WI-38 cells; read-out: Inhibition grade, Rhinovirus Type 39
Experimental: as §1, §2, §3

[2] = Cytotoxicity in tissue culture testing (HeLa monolayers); type: cell-based; conditions: human; HeLa cells; observed at 48 and 72 hours post-treatment; read-out: Cytotoxicity: concentration of the compound found to be toxic to the cell
Experimental: (§4) Monolayered HeLa cells in 16 millimeter (mm) tissue culture dishes were treated with 1 ml of culture medium (Eagles medium supplemented with fetal calf serum) containing subject compound at an appropriate concentration or containing no compound at all. Culture media such as those described herein are more fully described in standard texts, as for example, Kuchler's Biochemical Methods in Cell Culture and Virology, Dowden, Hutchinson and Ross, Inc., Stroudsberg, PA (1977). Following treatment, cells were challenged with 0.05 ml of rhinovirus type 1A (RV-1A), rhinovirus type 2 (RV-2) or Coxsackie A21 virus (Cox A21) in culture medium. Some of the compounds were also tested against rhinovirus type 5 (RV-5), rhinovirus type 8 (RV-8) or rhinovirus type 64 (RV-64). Cell controls received no viruses.
^1 Cytotoxicity figures represent the concentration of the compound, […]

Rhinovirus Type 60 = test: Inhibition of cytopathic effect in WI-38 cell culture tubes, rhinovirus type 60; type: cell-based; conditions: Enterovirus; 12.5 μg/ml; WI-38 cells; read-out: Inhibition grade, Rhinovirus Type 60
Experimental: as §1, §2, §3

Rhinovirus Type 74 = test: Inhibition of cytopathic effect in WI-38 cell culture tubes, rhinovirus type 74; type: cell-based; conditions: Enterovirus; 12.5 μg/ml; WI-38 cells; read-out: Inhibition grade, Rhinovirus Type 74
Experimental: as §1, §2, §3

Rhinovirus Type 17 = test: Inhibition of cytopathic effect in WI-38 cell culture tubes, rhinovirus type 17; type: cell-based; conditions: Enterovirus; 12.5 μg/ml; WI-38 cells; read-out: Inhibition grade, Rhinovirus Type 17
Experimental: as §1, §2, §3

Rhinovirus Type 8 = test: Inhibition of cytopathic effect in WI-38 cell culture tubes, rhinovirus type 8; type: cell-based; conditions: Enterovirus; 12.5 μg/ml; WI-38 cells; read-out: Inhibition grade, Rhinovirus Type 8
Experimental: as §1, §2, §3

Rhinovirus Type 29 = test: Inhibition of cytopathic effect in WI-38 cell culture tubes, rhinovirus type 29; type: cell-based; conditions: Enterovirus; 12.5 μg/ml; WI-38 cells; read-out: Inhibition grade, Rhinovirus Type 29
Experimental: as §1, §2, §3

[3] = system: rhinovirus type 64 (RV-64); test: Tissue culture testing, rhinovirus type 64 in HeLa cells; type: cell-based; conditions: Enterovirus, 48 and 72 hours, NA = not active at the standard test conditions, read-out: RV-64: lowest concentration of the compound necessary to cause a 50 percent reduction in cytopathic effect
Experimental: as §4
(§5) ^2 Lowest concentration of the compound (μg/ml) necessary to cause

Rhinovirus Type 58 = test: Inhibition of cytopathic effect in WI-38 cell culture tubes, rhinovirus type 58; type: cell-based; conditions: Enterovirus; 12.5 μg/ml; WI-38 cells; read-out: Inhibition grade, Rhinovirus Type 58
Experimental: as §1, §2, §3

Rhinovirus Type 19 = test: Inhibition of cytopathic effect in WI-38 cell culture tubes, rhinovirus type 19; type: cell-based; conditions: Enterovirus; 12.5 μg/ml; WI-38 cells; read-out: Inhibition grade, Rhinovirus Type 19
Experimental: as §1, §2, §3

Rhinovirus Type 13 = test: Inhibition of cytopathic effect in WI-38 cell culture tubes, rhinovirus type 13; type: cell-based; conditions: Enterovirus; 12.5 μg/ml; WI-38 cells; read-out: Inhibition grade, Rhinovirus Type 13
Experimental: as §1, §2, §3

[4] = system: rhinovirus type 1A (RV-1A); test: Tissue culture testing, rhinovirus type 1A in HeLa cells; type: cell-based; conditions: Enterovirus, 48 and 72 hours, NA = not active at the standard test conditions, read-out: RV-1A: lowest concentration of the compound necessary to cause a 50 percent reduction in cytopathic effect
Experimental: as §4, §5

Rhinovirus Type 64 = test: Inhibition of cytopathic effect in WI-38 cell culture tubes, rhinovirus type 64; type: cell-based; conditions: Enterovirus; 12.5 μg/ml; WI-38 cells; read-out: Inhibition grade, Rhinovirus Type 64
Experimental: as §1, §2, §3

[5] = system: Coxsackie A21 virus (Cox A21); test: Tissue culture testing, Coxsackie A21 virus in HeLa cells; type: cell-based; conditions: 48 and 72 hours, NA = not active at the standard test conditions, read-out: Cox A21: lowest concentration of the compound necessary to cause a 50 percent reduction in cytopathic effect
Experimental: as §4, §5

Rhinovirus Type 68 = test: Inhibition of cytopathic effect in WI-38 cell culture tubes, rhinovirus type 68; type: cell-based; conditions: Enterovirus; 12.5 μg/ml; WI-38 cells; read-out: Inhibition grade, Rhinovirus Type 68
Experimental: as §1, §2, §3

Rhinovirus Type 21 = test: Inhibition of cytopathic effect in WI-38 cell culture tubes, rhinovirus type 21; type: cell-based; conditions: Enterovirus; 12.5 μg/ml; WI-38 cells; read-out: Inhibition grade, Rhinovirus Type 21
Experimental: as §1, §2, §3

Rhinovirus Type 6 = test: Inhibition of cytopathic effect in WI-38 cell culture tubes, rhinovirus type 6; type: cell-based; conditions: Enterovirus; 12.5 μg/ml; WI-38 cells; read-out: Inhibition grade, Rhinovirus Type 6
Experimental: as §1, §2, §3

rhinovirus type 2 (RV-2) = test: Tissue culture testing, rhinovirus type 2 in HeLa cells; type: cell-based; conditions: Enterovirus, 48 and 72 hours, NA = not active at the standard test conditions, read-out: RV-2: lowest concentration of the compound necessary to cause a 50 percent reduction in cytopathic effect
Experimental: as §4, §5

Rhinovirus Type 81 = test: Inhibition of cytopathic effect in WI-38 cell culture tubes, rhinovirus type 81; type: cell-based; conditions: Enterovirus; 12.5 μg/ml; WI-38 cells; read-out: Inhibition grade, Rhinovirus Type 81
Experimental: as §1, §2, §3

Rhinovirus Type 10 = test: Inhibition of cytopathic effect in WI-38 cell culture tubes, rhinovirus type 10; type: cell-based; conditions: Enterovirus; 12.5 μg/ml; WI-38 cells; read-out: Inhibition grade, Rhinovirus Type 10
Experimental: as §1, §2, §3

Rhinovirus Type 75 = test: Inhibition of cytopathic effect in WI-38 cell culture tubes, rhinovirus type 75; type: cell-based; conditions: Enterovirus; 12.5 μg/ml; WI-38 cells; read-out: Inhibition grade, Rhinovirus Type 75
Experimental: as §1, §2, §3

Rhinovirus Type 4 = test: Inhibition of cytopathic effect in WI-38 cell culture tubes, rhinovirus type 4; type: cell-based; conditions: Enterovirus; 12.5 μg/ml; WI-38 cells; read-out: Inhibition grade, Rhinovirus Type 4
Experimental: as §1, §2, §3

Rhinovirus Type 56 = test: Inhibition of cytopathic effect in WI-38 cell culture tubes, rhinovirus type 56; type: cell-based; conditions: Enterovirus; 12.5 μg/ml; WI-38 cells; read-out: Inhibition grade, Rhinovirus Type 56
Experimental: as §1, §2, §3

Cox A21 = test: Single Oral Dose test in mice challenged IP with Cox A21; type: in vivo, Swiss male mice; conditions: >3.84 significant (95% confidence level)
Experimental: In addition, some of the compounds were tested in animals utilizing the following procedure, hereinafter referred to as the "Single Oral Dose" test. Swiss male mice, 8-12 grams in weight were challenged intraperitoneally (IP) with 0.2 ml of a normally lethal dose, i.e., a virus dose sufficient to cause […].80-100% mortality in infected animals within 10 days of challenge of Cox A21, in phosphate buffered saline containing 1% heat inactivated fetal calf serum. Three hours later mice were treated orally (P.O.) with 0.2 ml of compound suspended in 0.5% hydroxypropyl methylcellulose (Methocel) or with 0.2 ml of 0.5% Methocel containing no compound. […] Mice were observed daily for 7-10 days post-challenge and deaths recorded. A modified Mantel-Haenzel combined chi-square procedure was used to determine significant difference between virus control and treated groups. Chi-square values greater than 3.84 are considered significant (95% confidence level) in this test.

Rhinovirus Type 59 = test: Inhibition of cytopathic effect in WI-38 cell culture tubes, rhinovirus type 59; type: cell-based; conditions: Enterovirus; 12.5 μg/ml; WI-38 cells; read-out: Inhibition grade, Rhinovirus Type 59
Experimental: as §1, §2, §3

Coxsackie A21 virus = test: Continuous Oral Feeding test in mice challenged IP with Coxsackie A21 virus; type: in vivo; conditions: po, 0.06 % in diet, 240 h
Experimental: Some of the compounds were also tested in animals utilizing the following procedure, hereainafter referred to as the "Continuous Oral Feeding" test. Coxsackie A21 virus grown on HeLa cells was administered at a concentration that produces 80 to 100% deaths in mice weighing 8 to 12 grams within 10 days, when the mice are injected (IP) with 0.2 ml of virus preparation. Mice were placed on diets containing test compound dispersed in plain commercially available rodent mash chow at a concentration of 0.06% (weight percent) on day 0. On day 1 the mice were challenged with the virus preparation, 0.2 ml/mouse, (IP). Deaths in both control and experimental groups were recorded for the 10 days and the results analyzed by a chi-square (.chi.^2) test. Chi-square values greater than 3.84 indicate the compound is active (95% confidence level).

rhinovirus type 8 (RV-8) = test: Tissue culture testing, rhinovirus type 8 in HeLa cells; type: cell-based; conditions: Enterovirus, 48 and 72 hours, NA = not active at the standard test conditions, read-out: RV-8: lowest concentration of the compound necessary to cause a 50 percent reduction in cytopathic effect
Experimental: as §4, §5

CCS(=O)(=O)c1ccc(Oc2ccc(Cl)c(Cl)c2)nc1 [2-(3,4-dichlorophenoxy)-5-(ethylsulfonyl)pyridine]
number of test rhinoviruses against which the compound was graded "+" [1]: 14 test rhinoviruses | number of test rhinoviruses against which the compound was graded "±" [1]: 3

CS(=O)(=O)c1ccc(Oc2ccc(Cl)c(Cl)c2)nc1 [2-(3,4-dichlorophenoxy)-5-(methylsulfonyl)pyridine]
number of test rhinoviruses against which the compound was graded "+" [1]: 14 test rhinoviruses | number of test rhinoviruses against which the compound was graded "±" [1]: 2

CS(=O)(=O)c1ccc(Oc2ccc(C(=O)c3ccccc3)cc2)nc1 [(4-((5-(methylsulfonyl)-2-pyridinyl)oxy)phenyl)phenylmethanone]
number of test rhinoviruses against which the compound was graded "+" [1]: 13 test rhinoviruses | number of test rhinoviruses against which the compound was graded "±" [1]: 3

CS(=O)(=O)c1ccc(Oc2ccc(Cl)cc2)nc1 [Example 32, 2-(4-chlorophenoxy)-5-(methylsulfonyl)pyridine]
inhibition at 12.5 µg/mL (Hanks Untyped): ≥ 75% | inhibition at 12.5 µg/mL (Rhinovirus Type 39): < 50% | MCC [2]: 50 µg/mL | inhibition at 12.5 µg/mL (Rhinovirus Type 60): ≥ 75% | inhibition at 12.5 µg/mL (Rhinovirus Type 74): ≥ 75% | inhibition at 12.5 µg/mL (Rhinovirus Type 17): ≥ 75% | inhibition at 12.5 µg/mL (Rhinovirus Type 8): < 50% | inhibition at 12.5 µg/mL (Rhinovirus Type 29): ≥ 75% | EC50 [3]: 1.25 µg/mL (≈ 4.41 µM) | inhibition at 12.5 µg/mL (Rhinovirus Type 58): ≥ 75% | inhibition at 12.5 µg/mL (Rhinovirus Type 19): ≥ 75% | inhibition at 12.5 µg/mL (Rhinovirus Type 13): < 50% | EC50 [4]: 1.25 µg/mL (≈ 4.41 µM) | inhibition at 12.5 µg/mL (Rhinovirus Type 64): ≥ 75% | EC50 [5]: 3.12 µg/mL (≈ 11 µM) | inhibition at 12.5 µg/mL (Rhinovirus Type 68): ≥ 75% | inhibition at 12.5 µg/mL (Rhinovirus Type 21): 50 to 74% | inhibition at 12.5 µg/mL (Rhinovirus Type 6): 50 to 74% | EC50 (rhinovirus type 2 (RV-2)): 2.5 µg/mL (≈ 8.81 µM) | inhibition at 12.5 µg/mL (Rhinovirus Type 81): 50 to 74% | inhibition at 12.5 µg/mL (Rhinovirus Type 10): ≥ 75% | inhibition at 12.5 µg/mL (Rhinovirus Type 75): < 50% | inhibition at 12.5 µg/mL (Rhinovirus Type 4): ≥ 75% | inhibition at 12.5 µg/mL (Rhinovirus Type 56): ≥ 75% | Single Oral Dose X^2 (chi-square, deaths vs virus control) (Cox A21; 200 mg/kg P.O. 3 h after IP challenge): 52.866 | inhibition at 12.5 µg/mL (Rhinovirus Type 59): ≥ 75%

CCS(=O)(=O)c1ccc(Oc2ccc(Oc3ccccc3)cc2)nc1 [Example 44, 5-(ethylsulfonyl)-2-(4-phenoxyphenoxy)pyridine]
MCC [2]: 6.25 µg/mL | EC50 [4]: 6.25 µg/mL (≈ 17.6 µM) | EC50 [5]: 3.12 µg/mL (≈ 8.79 µM) | EC50 (rhinovirus type 2 (RV-2)): 3.12 µg/mL (≈ 8.79 µM) | Continuous Oral Feeding X^2 (chi-square, deaths vs control) (Coxsackie A21 virus): 1.58 | EC50 (rhinovirus type 8 (RV-8)): 6.25 µg/mL (≈ 17.6 µM) | Single Oral Dose X^2 (chi-square, deaths vs virus control) (Cox A21; 600 mg/kg P.O. 3 h after IP challenge): 0.196
